Results on 11 compounds are retold here after patent EP0242482B1, “Antiviral purine derivatives and process for their preparation” (BEECHAM GROUP PLC, priority 1985, dated 1987).

Converted amounts (≈) assume the structure as drawn. Read-outs that look alike come from different tables or passages of the source.

The test system of assay [1] is varicella zoster virus (VZV; Ellen strain). Nature of the assay: Plaque reduction test for varicella zoster virus. Format: cell-based. The following applies: Human alphaherpesvirus 3, MRC5, Ellen strain in MRC-5 cells; each figure is the value obtained in a single test; read-out: IC₅₀ Varicella Zoster virus Ellen strain in MRC-5 cells. The method, then: MRC-5 cells were grown to confluence in 24 well multi-dishes (well diameter = 1.5cm). The drained cell monolayers were each infected with approximately 50 infectious particles of varicella zoster virus (VZV; Ellen strain) in 100»l of phosphate-buffered saline. The virus was adsorbed for 1 hour at room temperature. After adsorption, residual inoculum was removed from each well and replaced with 0.5ml of Eagle's MEM containing 5% heat-inactivated foetal calf serum and 0.9% agarose (A37). Once the agarose had set, dilutions of the test compound, which had been prepared in Eagle's MEM (containing 5% heat-inactivated foetal calf serum), were added, each well receiving 0.5ml of liquid overlay. The test compound was diluted to give the following series of cencentrations: 200, 60, 20, 6....0.06»g/ml; final concentrations in the assay ranged, therefore, between 100»g/ml and 0.03»g/ml. The infected cultures were incubated at 37°C in a humidified atmosphere of 5% CO₂ until plaques were clearly visible (5 or 6 days).
(§1) Cultures from 1 and 2 were fixed in formal saline, the agarose overlays were carefully washed off, and then the cell monolayers were stained with carbol fuchsin. A stereo microscope was used to count plaques. The IC₅₀ (concentration of drug which inhibits plaque number by 50% relative to the number of plaques observed in virus control monolayers) of the test compound was calculated. In addition, the monolayers were examined for evidence of drug-induced cytotoxicity; the minimum concentration at which cytotoxicity occurs was recorded.
For orientation: Plaque reduction counts the foci of infection that form in a cell layer.

The test system of assay [2] is herpes simplex virus 1 (HSV-1; strain HFEM). Kind of assay: Plaque reduction test for herpes simplex virus 1. It is filed as cell-based. The conditions noted are these: Human alphaherpesvirus 1, Vero, HFEM strain in Vero cells; each figure is the value obtained in a single test; read-out: IC₅₀ Herpes Simplex Type 1 virus HFEM strain in Vero cells. The procedure:
(§2) Cells (Vero or MRC-5) were grown to confluence in 24 well multi-dishes (well diameter = 1.5cm). The drained cell monolayers were each infected with approximately 50 infectious particles of herpes simplex virus 1 (HSV-1; strain HFEM) or herpes simplex virus 2 (HSV-2; strain MS) in 100»l of phosphate-buffered saline. The virus was adsorbed for 1 hour at room temperature. After adsorption, residual inoculum was removed from each well and replaced with 0.5ml of Eagle's MEM containing 5% newborn calf serum and 0.9% agarose (A37). Once the agarose had set, dilutions of the test compound, which had been prepared in Eagle's MEM (containing 5% newborn calf serum), were added, each well receiving 0.5ml of liquid overlay. The test compound was diluted to give the following series of concentrations: 200, 60, 20, 6....0.06»g/ml; final concentrations in the assay ranged, therefore, between 100»g/ml and 0.03»g/ml. The infected cultures were incubated at 37°C in a humidified atmosphere of 5% CO₂ until plaques were clearly visible (2 or 3 days for Vero cells, usually 1 day for MRC-5 cells).
as §1

Assay [3] has as its system herpes simplex virus 1, strain SC16. Nature of the assay: CPE inhibition test (replicating cells) for herpes simplex virus 1. Format: cell-based. The conditions noted are these: Human alphaherpesvirus 1, SC16, MRC5, SC16 strain in MRC-5 cells; each figure is the value obtained in a single test; read-out: IC₅₀ Herpes Simplex Type 1 virus SC16 strain in MRC-5 cells. An excerpt:
MRC-5 cells (in Eagles MEM containing 5% newborn calf serum) were infected in suspension with herpes simplex virus 1, strain SC16 (approximately one infectious particle per 10 cells). One hundred microlitres of the infected cell suspension (containing approximately 2 x 10⁴ cells) were dispensed into each well of a 96 well microtitre plate containing an equal volume of the test drug in medium (Eagles MEM containing 5% newborn calf serum) at concentrations ranging from 200 to 0.09»g/ml (3-fold dilution steps); final concentrations therefore ranged between 100 to 0.045»g/ml. The plates were then incubated at 37°C in a humidified atmosphere of 5% CO₂ for 3 days when the virus-induced cytopathic effect (CPE) in the control wells reached 100%. The plates were fixed in formal saline and stained with carbol fuchsin. […] Plates of uninfected cells were set up in parallel to determined the minimum concentration of test compound which caused cytotoxicity.

The subject of assay [4] is herpes simplex virus 2 (HSV-2; strain MS). Nature of the assay: Plaque reduction test for herpes simplex virus 2. Format: cell-based, Herpes Simplex Type 2 virus. The following applies: each figure is the value obtained in a single test. The method, then: as §2, §1
Assay [5] concerns visna virus (strain K184). Kind of assay: CPE inhibition test (established monolayer) for lentiviruses. It is filed as cell-based. The conditions noted are these: minimum concentration giving complete protection of the cell monolayers. The procedure: 3 x 10⁴ sheep choroid plexus (SCP) cells were plated into individual wells of a 96 well microtitre plate in 100»l of Eagle's MEM with Hanks salts containing 10% heat inactivated foetal calf serum (FCS). When monolayers had become established (after 1 or 2 days growth) they were washed with 200»l of maintenance medium (Eagle's MEM with Hanks salts containing 0.5% FCS) and infected with 100»l of visna virus (strain K184) in maintenance medium (30 TCID₅₀/ml). Test samples were diluted with maintenance medium in further 96 well microtitre plates over the range 200-0.09»g/ml by 3-fold dilution steps. 100»l of the diluted samples was then transferred directly onto virus-infected monolayers (final concentration range therefore 100-0.045»g/ml) and incubated at 37°C in a humidified, 5% CO₂ incubation until virus-induced CPE was maximal in the untreated virus-infected controls (usually 12-14 days). The plates were fixed with formal saline and stained with crystal violet. Virus-induced CPE was then scored microscopically and the minimum concentration of sample giving complete protection of the cell monolayers (MIC) determined.

[6] abbreviates: Human alphaherpesvirus 2, MRC5, MS strain in MRC-5 cells, read-out: IC₅₀ Herpes Simplex Type 2 virus MS strain in MRC-5 cells.
[7] abbreviates: Human alphaherpesvirus 2, Vero, MS strain in Vero cells, read-out: IC₅₀ Herpes Simplex Type 2 virus MS strain in Vero cells.

Turning to `CCCCCC(=O)OCCCOn1cnc2c(=O)[nH]c(N)nc21` [Example 11, 9-(3-Hexanoyloxyprop-1-oxy)guanine], the results for the IC50 in assay [1], in assay [2] and in assay [3] were 0.1 µg/mL (≈ 0.309 µM), 0.7 µg/mL (≈ 2.16 µM) and 0.1 µg/mL (≈ 0.309 µM), respectively.

As to `Nc1nc2c(ncn2O[C@H](CO)CCO)c(=O)[nH]1` [Example 15, (S)-9-(1,4-Dihydroxybut-2-oxy)guanine], the IC50 in assay [3] is 7.4 µg/mL (≈ 29 µM).

With `Nc1nc2c(ncn2OCCCO)c(=O)[nH]1` [Example 1, 9-(3-Hydroxyprop-1-oxy)guanine], the IC50 in assay [4] (setting [6]) came to 0.1 µg/mL (≈ 0.444 µM); in assay [4] (setting [7]) it was 0.3 µg/mL (≈ 1.33 µM); in assay [2] it was 0.4 µg/mL (≈ 1.78 µM). Further, the “MIC Visna Virus K184 strain in SCP cells” value in assay [5] is 3.0 »g/ml.

On to `Nc1nc2c(ncn2O[C@@H](CO)CCO)c(=O)[nH]1` [Example 14, (R)-9-(1,4-Dihydroxybut-2-oxy)guanine], for which the IC50 in assay [3] came to 100 µg/mL (≈ 392 µM).

For the compound `CCOc1nc(N)nc2c1ncn2OCCCO` [Example 4, 2-Amino-6-ethoxy-9-(3-hydroxyprop-1-oxy)purine], the IC50 stood at 21 µg/mL (≈ 82.9 µM) in assay [1], 67 µg/mL (≈ 265 µM) in assay [4] (setting [6]) and 100 µg/mL (≈ 395 µM) in assay [3].

As to `Nc1nc2c(ncn2OCCCOC(=O)c2ccccc2)c(=O)[nH]1` [Example 3, 9-(3-Benzoyloxyprop-1-oxy)guanine], the figures for the IC50 in assay [4] (setting [6]), in assay [2] and in assay [3] were 2.1 µg/mL (≈ 6.38 µM), 2.8 µg/mL (≈ 8.5 µM) and 1.2 µg/mL (≈ 3.64 µM), respectively.

Turning to `Nc1nc2c(ncn2OC(CO)CCO)c(=O)[nH]1` (stereo not shown) [Example 8, 9-(1,4-Dihydroxybut-2-oxy)guanine], in assay [5], the “MIC Visna Virus K184 strain in SCP cells” value is 30 »g/ml. The IC50 in assay [3] was 11 µg/mL (≈ 43.1 µM).

Take `Nc1nc2c(ncn2OCC(O)CO)c(=O)[nH]1` (stereo not shown) [Example 6, 9-(2,3-Dihydroxyprop-1-oxy)guanine]: the IC50 amounted to 2.3 µg/mL (≈ 9.54 µM) in assay [1]; 0.7 µg/mL (≈ 2.9 µM) in assay [4] (setting [6]); 1.6 µg/mL (≈ 6.63 µM) in assay [4] (setting [7]); 8.6 µg/mL (≈ 35.7 µM) in assay [2]; 1.9 µg/mL (≈ 7.88 µM) in assay [3]. Besides, the “MIC Visna Virus K184 strain in SCP cells” value in assay [5] is listed as 10 »g/ml.

Turning to `CC(=O)OCCCOn1cnc2c(=O)[nH]c(N)nc21` [Example 2, 9-(3-Acetoxyprop-1-oxy)guanine], the IC50 is 1.1 µg/mL (≈ 4.12 µM) in assay [4] (setting [6]), 4.3 µg/mL (≈ 16.1 µM) in assay [2] and 0.4 µg/mL (≈ 1.5 µM) in assay [3].

`Nc1ncc2ncn(OCC(O)CO)c2n1` (stereo not shown) [Example 7, 2-Amino-9-(2,3-dihydroxyprop-1-oxy)purine]: the IC50 in assay [1] was 57 µg/mL (≈ 253 µM); in assay [3], 100 µg/mL (≈ 444 µM).

As for `Nc1nc2c(ncn2OCC(CO)CO)c(=O)[nH]1` [Example 5, 9-(3-Hydroxy-2-hydroxymethylprop-1-oxy)guanine], the IC50 stood at 2.9 µg/mL (≈ 11.4 µM) in assay [1]; 1.5 µg/mL (≈ 5.88 µM) in assay [4] (setting [6]); 1.5 µg/mL (≈ 5.88 µM) in assay [4] (setting [7]); 1.5 µg/mL (≈ 5.88 µM) in assay [2]; 1.8 µg/mL (≈ 7.05 µM) in assay [3]. Also, the “MIC Visna Virus K184 strain in SCP cells” value in assay [5] was 0.1 »g/ml.
